# Non-standard residues stand in square brackets, D forms with d. Residues, ends and D or L forms follow the SMILES beside them. *: point of attachment. Ac5c = NC1(C(=O)O)CCCC1; Aib = CC(C)(N)C(=O)O; Butyryl = CCCC(=O)*
# Columns and labels:
# Assay in all cases: MTT cytotoxicity assay, 48 hours (Example 14)
# U87MG (Glioblastoma) = type: cell-based
# Method: (§1) The cytotoxic effect of peptide sequences SEQ ID NO: 9, SEQ ID NO: 10, SEQ ID NO: 11 and SEQ ID NO: 12, were studied by MTT assay which is based on the principle of uptake of MTT[3-[4,5-dimethylthiazol-2-yl]-2,5-diphenyl tetrazolium bromide], a tetrazolium salt by the metabolically active cells where it is metabolized by active mitochondria into a blue colored formazan product which can be read spectrophotometrically. Tumor cells KB (oral squamous). HuTu80 (Stomach), PTC and SW620 (colon), U87MG (Glioblastoma), HBL 100. (Breast), HeP2 (laryngeal) and L132 (Lung) were incubated with the peptide analogs for 48 hours at 37° C. in a 96-well culture plate, followed by the addition of 100 μl MTT and further incubation of 1 hour. The formazon crystals formed inside the cells were dissolved with a detergent comprising 10% Sodium dodecyl sulfate and 0.01 N HCl and optical density read on a multiscan ELISA reader. The optical density was directly proportional to the number of proliferating and metabolically active cells.
# L132 (Lung) = type: cell-based
# Method: as §1
# HeP2 (laryngeal) = type: cell-based
# Method: as §1
# HBL 100 (Breast) = type: cell-based, human
# Method: as §1
# HuTu80 (Stomach) = type: cell-based, human
# Method: as §1
# KB (oral squamous) = type: cell-based, human
# Method: as §1
# SW620 (colon) = type: cell-based, human
# Method: as §1
# PTC (colon) = type: cell-based, human
# Method: as §1
compound,measurement,setting,value
"CC(C)C[C@H](NC(=O)[C@H](Cc1c[nH]cn1)NC(=O)C1(NC(=O)[C@@H](NC(=O)[C@H](C)NC(=O)[C@H](Cc2c[nH]c3ccccc23)NC(=O)[C@H](CCC(N)=O)NC(=O)[C@H](N)Cc2ccccc2)C(C)C)CCCC1)C(N)=O [SEQ ID: 10, D-Phe-Gln-Trp-Ala-Val-Ac5c-His-Leu-NH2] (H-[dF]QWAV[Ac5c]HL-NH2; N-terminus assumed)",Percentage cytotoxicity,U87MG (Glioblastoma); 10 pM,11.6 ± 1.7%
same,Percentage cytotoxicity,U87MG (Glioblastoma); 100 pM,16.5 ± 0.5%
same,Percentage cytotoxicity,U87MG (Glioblastoma); 1 nM,25.6 ± 2.1%
same,Percentage cytotoxicity,U87MG (Glioblastoma); 10 nM,20.0 ± 0.0%
same,Percentage cytotoxicity,U87MG (Glioblastoma); 100 nM,15.0 ± 0.5%
same,Percentage cytotoxicity,U87MG (Glioblastoma); 1 μM,10.0 ± 0.0%
same,Percentage cytotoxicity,"L132 (Lung); L132, 10 pM",1.9 ± 0.2%
same,Percentage cytotoxicity,"L132 (Lung); L132, 100 pM",29.4 ± 1.9%
same,Percentage cytotoxicity,"L132 (Lung); L132, 1 nM",29.5 ± 2.8%
same,Percentage cytotoxicity,"L132 (Lung); L132, 10 nM",27.5 ± 2.8%
same,Percentage cytotoxicity,"L132 (Lung); L132, 100 nM",27.8 ± 2.1%
same,Percentage cytotoxicity,"L132 (Lung); L132, 1 μM",22.4 ± 1.8%
same,Percentage cytotoxicity,"HeP2 (laryngeal); HeP2, 10 pM",1.7 ± 0.1%
same,Percentage cytotoxicity,"HeP2 (laryngeal); HeP2, 100 pM",19.1 ± 0.6%
same,Percentage cytotoxicity,"HeP2 (laryngeal); HeP2, 1 nM",27.2 ± 2.6%
same,Percentage cytotoxicity,"HeP2 (laryngeal); HeP2, 10 nM",27.5 ± 2.8%
same,Percentage cytotoxicity,"HeP2 (laryngeal); HeP2, 100 nM",26.3 ± 1.7%
same,Percentage cytotoxicity,"HeP2 (laryngeal); HeP2, 1 μM",19.9 ± 1.5%
same,Percentage cytotoxicity,"HBL 100 (Breast); HBL100, 10 pM",21.1 ± 0.7%
same,Percentage cytotoxicity,"HBL 100 (Breast); HBL100, 100 pM",16.6 ± 0.1%
same,Percentage cytotoxicity,"HBL 100 (Breast); HBL100, 1 nM",23.3 ± 1.6%
same,Percentage cytotoxicity,"HBL 100 (Breast); HBL100, 10 nM",32.9 ± 0.7%
same,Percentage cytotoxicity,"HBL 100 (Breast); HBL100, 100 nM",21.2 ± 1.7%
same,Percentage cytotoxicity,"HBL 100 (Breast); HBL100, 1 μM",18.5 ± 1.7%
same,Percentage cytotoxicity,"HuTu80 (Stomach); HuTu80, 10 pM",13.5 ± 0.8%
same,Percentage cytotoxicity,"HuTu80 (Stomach); HuTu80, 100 pM",22.9 ± 0.2%
same,Percentage cytotoxicity,"HuTu80 (Stomach); HuTu80, 1 nM",23.3 ± 2.8%
same,Percentage cytotoxicity,"HuTu80 (Stomach); HuTu80, 10 nM",20.6 ± 1.7%
same,Percentage cytotoxicity,"HuTu80 (Stomach); HuTu80, 100 nM",21.0 ± 2.0%
same,Percentage cytotoxicity,"HuTu80 (Stomach); HuTu80, 1 μM",17.2 ± 1.1%
same,Percentage cytotoxicity,KB (oral squamous); 10 pM,19.2 ± 2.9%
same,Percentage cytotoxicity,KB (oral squamous); 100 pM,25.0 ± 6.3%
same,Percentage cytotoxicity,KB (oral squamous); 1 nM,31.1 ± 4.1%
same,Percentage cytotoxicity,KB (oral squamous); 10 nM,27.3 ± 2.7%
same,Percentage cytotoxicity,KB (oral squamous); 100 nM,22.0 ± 1.1%
same,Percentage cytotoxicity,KB (oral squamous); 1 μM,16.5 ± 0.2%
same,Percentage cytotoxicity,"SW620 (colon); SW620, 10 pM",16.7 ± 0.2%
same,Percentage cytotoxicity,"SW620 (colon); SW620, 100 pM",20.9 ± 0.6%
same,Percentage cytotoxicity,"SW620 (colon); SW620, 1 nM",22.4 ± 1.7%
same,Percentage cytotoxicity,"SW620 (colon); SW620, 10 nM",25.5 ± 2.8%
same,Percentage cytotoxicity,"SW620 (colon); SW620, 100 nM",19.4 ± 1.8%
same,Percentage cytotoxicity,"SW620 (colon); SW620, 1 μM",22.2 ± 2.1%
same,Percentage cytotoxicity,PTC (colon); 10 pM,22.2 ± 4.9%
same,Percentage cytotoxicity,PTC (colon); 100 pM,21.6 ± 3.1%
same,Percentage cytotoxicity,PTC (colon); 1 nM,29.4 ± 2.9%
same,Percentage cytotoxicity,PTC (colon); 10 nM,32.5 ± 5.1%
same,Percentage cytotoxicity,PTC (colon); 100 nM,29.3 ± 3.2%
same,Percentage cytotoxicity,PTC (colon); 1 μM,28.4 ± 3.6%
"CCCC(=O)N[C@H](Cc1ccccc1)C(=O)N[C@@H](CCC(N)=O)C(=O)N[C@@H](Cc1c[nH]c2ccccc12)C(=O)N[C@@H](C)C(=O)N[C@H](C(=O)NC(C)(C)C(=O)N[C@@H](Cc1c[nH]cn1)C(=O)N[C@@H](CC(C)C)C(N)=O)C(C)C [SEQ ID: 11, Butanoyl-D-Phe-Gln-Trp-Ala-Val-Aib-His-Leu-NH2] (Butyryl-[dF]QWAV[Aib]HL-NH2)",Percentage cytotoxicity,U87MG (Glioblastoma); 10 pM,21.9 ± 2.1%
same,Percentage cytotoxicity,U87MG (Glioblastoma); 100 pM,26.5 ± 2.6%
same,Percentage cytotoxicity,U87MG (Glioblastoma); 1 nM,24.2 ± 1.7%
same,Percentage cytotoxicity,U87MG (Glioblastoma); 10 nM,20.0 ± 0.0%
same,Percentage cytotoxicity,U87MG (Glioblastoma); 100 nM,15.5 ± 0.6%
same,Percentage cytotoxicity,U87MG (Glioblastoma); 1 μM,1.0 ± 0.1%
same,Percentage cytotoxicity,"L132 (Lung); L132, 10 pM",0.5 ± 0.0%
same,Percentage cytotoxicity,"L132 (Lung); L132, 100 pM",18.3 ± 0.9%
same,Percentage cytotoxicity,"L132 (Lung); L132, 1 nM",29.4 ± 0.4%
same,Percentage cytotoxicity,"L132 (Lung); L132, 10 nM",30.4 ± 0.4%
same,Percentage cytotoxicity,"L132 (Lung); L132, 100 nM",20.4 ± 1.5%
same,Percentage cytotoxicity,"L132 (Lung); L132, 1 μM",1.4 ± 1.1%
same,Percentage cytotoxicity,"HeP2 (laryngeal); HeP2, 10 pM",15.1 ± 0.3%
same,Percentage cytotoxicity,"HeP2 (laryngeal); HeP2, 100 pM",20.1 ± 0.0%
same,Percentage cytotoxicity,"HeP2 (laryngeal); HeP2, 1 nM",37.1 ± 3.3%
same,Percentage cytotoxicity,"HeP2 (laryngeal); HeP2, 10 nM",34.6 ± 2.2%
same,Percentage cytotoxicity,"HeP2 (laryngeal); HeP2, 100 nM",23.9 ± 1.1%
same,Percentage cytotoxicity,"HeP2 (laryngeal); HeP2, 1 μM",21.9 ± 2.1%
same,Percentage cytotoxicity,"HBL 100 (Breast); HBL100, 10 pM",18.2 ± 1.1%
same,Percentage cytotoxicity,"HBL 100 (Breast); HBL100, 100 pM",15.4 ± 4.1%
same,Percentage cytotoxicity,"HBL 100 (Breast); HBL100, 1 nM",24.3 ± 1.6%
same,Percentage cytotoxicity,"HBL 100 (Breast); HBL100, 10 nM",29.9 ± 0.3%
same,Percentage cytotoxicity,"HBL 100 (Breast); HBL100, 100 nM",22.7 ± 0.5%
same,Percentage cytotoxicity,"HBL 100 (Breast); HBL100, 1 μM",24.5 ± 0.8%
same,Percentage cytotoxicity,"HuTu80 (Stomach); HuTu80, 10 pM",17.6 ± 1.6%
same,Percentage cytotoxicity,"HuTu80 (Stomach); HuTu80, 100 pM",22.6 ± 3.9%
same,Percentage cytotoxicity,"HuTu80 (Stomach); HuTu80, 1 nM",30.5 ± 4.1%
same,Percentage cytotoxicity,"HuTu80 (Stomach); HuTu80, 10 nM",27.3 ± 2.7%
same,Percentage cytotoxicity,"HuTu80 (Stomach); HuTu80, 100 nM",20.0 ± 3.1%
same,Percentage cytotoxicity,"HuTu80 (Stomach); HuTu80, 1 μM",14.2 ± 0.1%
same,Percentage cytotoxicity,KB (oral squamous); 10 pM,21.6 ± 3.7%
same,Percentage cytotoxicity,KB (oral squamous); 100 pM,26.7 ± 5.1%
same,Percentage cytotoxicity,KB (oral squamous); 1 nM,33.1 ± 2.1%
same,Percentage cytotoxicity,KB (oral squamous); 10 nM,31.9 ± 3.1%
same,Percentage cytotoxicity,KB (oral squamous); 100 nM,31.9 ± 2.1%
same,Percentage cytotoxicity,KB (oral squamous); 1 μM,24.2 ± 1.2%
same,Percentage cytotoxicity,"SW620 (colon); SW620, 10 pM",20.4 ± 0.3%
same,Percentage cytotoxicity,"SW620 (colon); SW620, 100 pM",25.9 ± 3.8%
same,Percentage cytotoxicity,"SW620 (colon); SW620, 1 nM",35.1 ± 2.2%
same,Percentage cytotoxicity,"SW620 (colon); SW620, 10 nM",31.5 ± 2.6%
same,Percentage cytotoxicity,"SW620 (colon); SW620, 100 nM",21.0 ± 1.5%
same,Percentage cytotoxicity,"SW620 (colon); SW620, 1 μM",23.7 ± 1.4%
same,Percentage cytotoxicity,PTC (colon); 10 pM,19.7 ± 0.6%
same,Percentage cytotoxicity,PTC (colon); 100 pM,28.3 ± 0.8%
same,Percentage cytotoxicity,PTC (colon); 1 nM,28.5 ± 2.8%
same,Percentage cytotoxicity,PTC (colon); 10 nM,25.7 ± 4.1%
same,Percentage cytotoxicity,PTC (colon); 100 nM,25.8 ± 2.5%
same,Percentage cytotoxicity,PTC (colon); 1 μM,18.6 ± 1.5%

# Reference: patent US6989371B1, “Bombesin analogs for treatment of cancer” (Dabur Research Foundation, priority 1996, dated 2006)
